# Experimental data taken from patent publication US20240101548A1, “HYDROXAMATE COMPOUND, PREPARATION METHOD THEREFOR AND APPLICATION THEREOF” (SHENZHEN CHIPSCREEN BIOSCIENCES CO., LTD., priority 2020, published 2024).
# Read-outs that look alike come from different tables or passages of the source.
# What was measured:
# Format in all cases: cell-based, human
# [1] = test system: IL-10-induced JAK1/TYK2 signal pathway; test: IL-10-induced JAK1/TYK2 signal pathway STAT3-Luc reporter gene assay in U2OS cells; conditions: U2OS cells, STAT3-Luc reporter, IL-10 10 ng/mL, read-out: Half inhibition dose (IC50) on IL-10-induced JAK1/TYK2 signal pathway
# From the text: Cytokine IL-10 is one of the main members of IL-10 family. The receptor that cytokine IL-10 binds to consists of two kinds of subunits, i.e., IL-10R1 and IL-10R2, which respectively couple with JAK1 and TYK2. After the coupling of IL-10 with its receptor, interaction of phosphorylation occurs between JAK1 and TYK2 to form STAT3 docking site for phosphorylation of STAT3. The phosphorylated STAT3 enters the nucleus and drives the transcription and expression of downstream genes.
# The reporter gene plasmid STAT3-Luc Reporter used in the present invention has luciferase expression sequence as the reporter gene, upstream of which is a promoter sequence containing multiple STAT3 binding sites. When phosphorylated STAT3 induced by IL-10 signal pathway binds to the promoter of STAT3-Luc Reporter plasmid, luciferase is transcribed and expressed. The excitation fluorescence catalyzed by Luciferase can be detected after the addition of […] substrate, whose intensity can quantitively reflect the activation level of the signal pathway.
# Human osteosarcoma cell line U20S was commercially available from American Type Culture Collection (ATCC), and relevant culture conditions referred to those from ATCC. It was known that such cell line could express IL-10R2, JAK1, TYK2 and STAT3, therefore, by exogenous expression of IL-10R1 gene, a complete IL-10 signal pathway could be established. The human IL-10R1 subunit overexpression plasmid pCMV3-IL10RA-EGFP was constructed by Shanghai Genechem Co., Ltd., and capable of simultaneously expressing enhanced green fluorescent protein. In the subsequent detection and calculation, the signal of green fluorescent protein in the tested sample was used as a reference for transfection efficiency calibration of the luciferase reporter gene signal. Reporter plasmid STAT3-Luc Reporter was commercially available from Ji Man Biotech (Shanghai) Co., Ltd.
# X-tremeGENE 9 DNA Transfection Reagent (Roche) was used for the transfection of plasmid DNA into cells, Cell Culture Lysis 5× reagent (Promega) and Luciferase Assay System (Promega) were used in cell lysate preparation and enzyme-substrate reaction for luciferase reporter gene detection. Green fluorescent protein signal and luciferase reporter gene signal were both detected by Tecan Spark™ 10M multimode microplate reader. The inhibition rate of the tested compound on the IL-10 signal pathway reporter gene signal and the half inhibition dose IC50 were both calculated using Microsoft Excel and GraphPad Prism 7.00 software.
# U2OS cell line was inoculated in 96-well plate with flat bottom at 5000 cells per well, and cultured overnight at 37° C. and 5% CO2 followed by plasmid transfection. Following the instructions and using X-tremeGENE 9 DNA Transfection Reagent, pCMV3-IL10RA-EGFP and STAT3-Luc Reporter plasmids were co-transfected into the inoculated U2OS cells. After 24 hours of transfection, the tested compound was added respectively for a final concentration of 0, 0.1, 0.3, 1, 3, 10, 30, 100, or 300 nM. After 6 hours of culture at 37° C. and 5% CO2, IL-10 cytokine (Human IL-10 PEPROTECH 200-10-10UG) was added to each well for a final concentration of 10 ng/mL, the well in which neither compound nor cytokine was added was designated as 0% control well. The culture was continued for 24 hours before testing.
# Cell lysate was prepared by using Cell Culture Lysis reagent and transferred to 96-well plate with half-well clear bottom. The green fluorescent protein signal value was detected at Ex485/Em520 using Tecan microplate reader, and recorded. After adding to each well the luciferase substrate from Luciferase Assay System, the signal value of luciferase-substrate reaction was immediately detected at 560 nm using Tecan microplate reader, and recorded.
# Using Microsoft Excel software, the signal value of luciferase-substrate reaction of each well was calculated and calibrated based on the signal value of green fluorescent protein of each well. […]
# [2] = test system: IL-2-induced JAK1/JAK3 signal pathway; test: IL-2-induced proliferation of KHYG-1 cells (JAK1/JAK3 signal); conditions: KHYG-1 cell proliferation, IL-2 10 ng/mL, 72 hours, read-out: Inhibition activity IC50 on IL-2-induced JAK1/JAK3 signal pathway
# Method in brief: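 KHYG-1 NK lymphoma cells were cultured with IL-2 and test compound at various doses for 72 h at 37 °C and 5% CO2, and proliferation was read with alamarBlue fluorescence. Inhibition was normalized to wells without compound or cytokine (0%) and IL-2 wells without compound (100%), and C50 was derived from the dose-inhibition data.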
# [3] = test system: EPO-induced JAK2 signal pathway; test: EPO-induced proliferation of UT-7 cells (JAK2 signal); conditions: UT-7 cell proliferation, EPO 10 ng/mL, 72 hours, read-out: Inhibition activity IC50 on EPO-induced JAK2 signal pathway
# Method in brief: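 UT-7 cells (15000/well) stimulated with 10 ng/mL human recombinant EPO plus compound at final 0, 100, 1000 or 10000 nM, 72 h at 37° C., 5% CO2. Proliferation by alamarBlue fluorescence (Ex530/Em590); inhibition normalised to no-cytokine/no-compound (0) and EPO-only (100) wells, […] derived from dose-inhibition.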
SMILES,"IC50 ([1]; Homo sapiens, U2OS) [µM]",IC50 ([2]; Homo sapiens) [µM],"IC50 ([3]; Homo sapiens, UT7) [µM]",IC50 ([1]; Homo sapiens) [µM],IC50 [1] [µM],IC50 [2] [µM],IC50 [3] [µM]
"CCONC(=O)c1cnc(Nc2cnccn2)cc1Nc1ccc(C2CC2)cc1N(C)S(C)(=O)=O [Example 145, 4-((4-cyclopropyl-2-(N-methylmethanesulfonamido)phenyl)amino)-N-ethoxy-6-(pyrazin-2-ylamino)nicotinamide]",0.000301,> 10,> 10,–,–,–,–
"CONC(=O)c1cnc(NC(=O)C2CC2)cc1Nc1ccc(C)cc1N(C)S(C)(=O)=O [Example 81, 6-(cyclopropylcarboxamido)-N-methoxy-4-((4-methyl-2-(N-methylmethanesulfonamido)phenyl)amino)nicotinamide]",–,> 10,> 10,0.0015,–,–,–
"CONC(=O)c1cnc(Nc2ccc(F)cn2)cc1Nc1ccc(C2CC2)cc1N(C)S(C)(=O)=O [Example 13, 4-((4-cyclopropyl-2-(N-methylmethanesulfonamido)phenyl)amino)-6-((5-fluoropyridin-2-yl)amino)-N-methoxy nicotinamide]",0.0011,> 10,> 10,–,–,–,–
Cc1cc(Nc2cc(Nc3ccc(C4CC4)cc3N(C)S(C)(=O)=O)c(C(=O)NOCC(F)(F)F)cn2)nc(C)n1 [Example 118],0.00128,> 10,> 10,–,–,–,–
"CONC(=O)c1cnc(Nc2cccc(F)n2)cc1Nc1cccnc1N(C)S(C)(=O)=O [Example 36, 6-((6-fluoropyridin-2-yl)amino)-N-methoxy-4-((2-(N-methylmethanesulfonamido)pyridin-3-yl)amino)nicotinamide]",0.000686,> 10,> 10,–,–,–,–
"CCONC(=O)c1cnc(Nc2nc(C)cs2)cc1Nc1cc(F)c(C2CC2)cc1N(C)S(C)(=O)=O [Example 170, 4-((4-cyclopropyl-5-fluoro-2-(N-methylmethanesulfonamido)phenyl)amino)-N-ethoxy-6-((4-methylthiazol-2-yl)amino)nicotinamide]",0.0015,> 10,> 10,–,–,–,–
"CCONC(=O)c1cnc(Nc2ccc(F)cn2)cc1Nc1ccc(Cl)cc1N(C)S(C)(=O)=O [Example 128, 4-((4-chloro-2-(N-methylmethanesulfonamido)phenyl)amino)-N-ethoxy-6-((5-fluoropyridin-2-yl)amino)nicotinamide]",0.000697,> 10,> 10,–,–,–,–
"CCONC(=O)c1cnc(NC(=O)C2CC2)cc1Nc1ccccc1N(C)S(C)(=O)=O [Example 90, 6-(cyclopropylcarboxamido)-N-ethoxy-4-((2-(N-methylmethanesulfonamido)phenyl)amino)nicotinamide]",0.0014,> 10,> 10,–,–,–,–
"CONC(=O)c1cnc(NC(=O)C2CC2)cc1Nc1ccc(Cl)cc1N(C)S(C)(=O)=O [Example 79, 4-((4-chloro-2-(N-methylmethanesulfonamido)phenyl)amino)-6-(cyclopropylcarboxamido)-N-methoxy nicotinamide]",0.000889,> 10,> 10,–,–,–,–
"CONC(=O)c1cnc(Nc2ccc(F)cn2)cc1Nc1ccc(OCC2CC2)cc1N(C)S(C)(=O)=O [Example 61, 4-((4-(cyclopropylmethoxy)-2-(N-methylmethanesulfonamido)phenyl)amino)-6-((5-fluoropyridin-2-yl)amino)-N-methoxy nicotinamide]",0.0017,> 10,> 10,–,–,–,–
CCONC(=O)c1cnc(Nc2ccc(F)cn2)cc1Nc1ccc(N2CCOCC2)cc1N(C)S(C)(=O)=O [Example 130],0.000802,> 10,> 10,–,–,–,–
"CCONC(=O)c1cnc(Nc2cccc(C)n2)cc1Nc1ccc(C2CC2)cc1N(C)S(C)(=O)=O [Example 217, 4-((4-cyclopropyl-2-(N-methylmethanesulfonamido)phenyl)amino)-N-ethoxy-6-((6-methylpyridin-2-yl)amino)nicotinamide]",–,–,–,–,0.00105,> 10,> 10
"CCONC(=O)c1cnc(NC(=O)C2CC2)cc1Nc1cccc(-c2ncn(C)n2)c1OC [Example 166, 6-(cyclopropylcarboxamido)-N-ethoxy-4-((2-methoxy-3-(1-methyl-1H-1,2,4-triazol-3-yl)phenyl)amino)nicotinamide]",0.00151,> 10,> 10,–,–,–,–
"CONC(=O)c1cnc(Nc2cccc(F)n2)cc1Nc1ccc(C2CC2)cc1N(C)S(C)(=O)=O [Example 14, 4-((4-cyclopropyl-2-(N-methylmethanesulfonamido)phenyl)amino)-6-((6-fluoropyridin-2-yl)amino)-N-methoxy nicotinamide]",0.000874,> 10,> 10,–,–,–,–
"CCONC(=O)c1cnc(Nc2ccc(OC)cc2)cc1Nc1ccc(Cl)cc1N(C)S(C)(=O)=O [Example 113, 4-((4-chloro-2-(N-methylmethanesulfonamido)phenyl)amino)-N-ethoxy-6-((4-methoxyphenyl)amino)nicotinamide]",0.000414,> 10,> 10,–,–,–,–
"CCONC(=O)c1cnc(Nc2ccnc(OC)n2)cc1Nc1cc(F)c(C2CC2)cc1N(C)S(C)(=O)=O [Example 188, 4-((4-cyclopropyl-5-fluoro-2-(N-methylmethanesulfonamido)phenyl)amino)-N-ethoxy-6-((2-methoxypyrimidin-4-yl)amino)nicotinamide]",0.00127,> 10,> 10,–,–,–,–
CCONC(=O)c1cnc(Nc2cc(C)nc(C)n2)cc1Nc1ccc(-c2ccnn2C)cc1OC [Example 207],0.00108,> 10,> 10,–,–,–,–
"CCONC(=O)c1cnc(Nc2cc(C)nc(C)n2)cc1Nc1ccc(C)cc1N(C)S(=O)(=O)CC [Example 203, 6-((2,6-dimethylpyrimidin-4-yl)amino)-N-ethoxy-4-((4-methyl-2-(N-methylethylsulfonamido)phenyl)amino)nicotinamide]",0.000383,> 10,> 10,–,–,–,–
"CCONC(=O)c1cnc(Nc2ncc(F)cc2F)cc1Nc1cc(F)cc(-c2ncn(C3CC3)n2)c1OC [Example 244, 4-((3-(1-cyclopropyl-1H-1,2,4-triazol-3-yl)-5-fluoro-2-methoxyphenyl)amino)-6-((3,5-difluoropyridin-2-yl)amino)-N-ethoxy nicotinamide]",0.00258,> 10,> 10,–,–,–,–
